Experimental data reported in patent US9725442B2, “Heterocyclic derivative having PGD2 receptor antagonist activity” (Shionogi & Co., Ltd., priority 2011, dated 2017).
Where two headings read alike, the source gives them in different places.

Tests used:
CRTH2 = CRTH2 (Homo sapiens (Human), UniProt Q9Y5Y4); assay: CRTH2 receptor binding inhibitory activity ([3H]-PGD2 displacement, membranes of CRTH2-expressing K562 cell); conditions: [3H]-PGD2 displacement, membrane of CRTH2-expressing K562 cell, read-out: Ki
In short: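 CRTH2-expressing K562 membranes (20 μg/well) in 50 mM Tris/HCl pH 7.4 with 10 mM MgCl2 were incubated with [3H]-PGD2 for 60 min at room temperature, then filtered.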

Human DP1 receptor = Human DP1 receptor (Homo sapiens (Human), UniProt Q13258); assay: Human DP1 inhibitory activity in DP1-expressing cell (PGD2-induced cAMP); assay type: cell-based; conditions: category of cAMP IC50, human DP1 receptor expressing Jurkut cell
Method: Compounds were categorized as AA (cAMP is less than 100 nM) and A (cAMP is more than 100 nM and less than 5000 nM) as shown in Table 99 and 100.

[1] = CRTH2 receptor binding, categorized AAAA/AAA

Chain of CRTH2 (Q9Y5Y4 whole entry): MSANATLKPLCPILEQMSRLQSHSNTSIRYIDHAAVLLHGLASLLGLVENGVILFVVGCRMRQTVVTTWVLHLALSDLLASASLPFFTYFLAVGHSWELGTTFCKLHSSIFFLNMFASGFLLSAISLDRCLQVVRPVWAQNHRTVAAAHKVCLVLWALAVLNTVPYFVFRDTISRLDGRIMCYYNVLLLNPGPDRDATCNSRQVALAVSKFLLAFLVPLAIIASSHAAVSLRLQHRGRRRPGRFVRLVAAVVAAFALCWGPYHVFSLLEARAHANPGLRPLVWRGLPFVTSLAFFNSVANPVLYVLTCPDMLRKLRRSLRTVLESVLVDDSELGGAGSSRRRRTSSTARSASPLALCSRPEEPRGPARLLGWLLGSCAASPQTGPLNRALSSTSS
Chain of Human DP1 receptor (Q13258 whole entry): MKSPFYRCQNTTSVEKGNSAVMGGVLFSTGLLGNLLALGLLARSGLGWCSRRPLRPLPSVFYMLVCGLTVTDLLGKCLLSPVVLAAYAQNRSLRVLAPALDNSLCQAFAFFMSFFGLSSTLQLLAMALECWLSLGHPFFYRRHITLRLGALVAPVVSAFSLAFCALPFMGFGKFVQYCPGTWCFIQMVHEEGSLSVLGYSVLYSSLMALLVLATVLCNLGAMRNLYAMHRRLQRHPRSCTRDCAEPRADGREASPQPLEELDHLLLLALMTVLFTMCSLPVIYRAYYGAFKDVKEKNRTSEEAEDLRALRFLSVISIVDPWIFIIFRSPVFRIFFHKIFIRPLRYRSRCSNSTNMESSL

Row | SMILES | Ki (CRTH2; [1]) [nM] | IC50 (Human DP1 receptor) [nM] | Ki (CRTH2) [nM]
1 | CC(C)Oc1ccc(S(=O)(=O)N2C[C@@H](n3nc(CC(=O)O)c4ccc(F)cc43)[C@@H](C)C2)cc1 [Compound I-36] | < 100 | 100 to 5000 | 
2 | Cc1noc([C@H]2C[C@@H](n3nc(CC(=O)O)c4ccc(F)cc43)CN2S(=O)(=O)c2ccc(OC(C)C)cc2)n1 [Compound I-364] | 100 to 5000 | 100 to 5000 | 
3 | CCOc1ccc(S(=O)(=O)N2C[C@@H](C)[C@@H](n3nc(CC(=O)O)c4ccc(C)cc43)C2)s1 [Compound I-171] | < 100 | < 100 | 
4 | CCOc1ccc(S(=O)(=O)N2C[C@@H](C)[C@@H](n3nc(CC(=O)O)c4ccccc43)C2)c(CF)c1 [Compound I-258] | < 100 | < 100 | 
5 | COc1ccc(S(=O)(=O)N2C[C@@H](C)[C@@H](n3nc(CC(=O)O)c4ccccc43)C2)s1 [Compound I-178] | < 100 | 100 to 5000 | 
6 | CC(C)Oc1ccc(S(=O)(=O)N2C[C@@H](C)[C@@H](n3nc(CC(=O)O)c4cc(C#N)c(F)cc43)C2)cc1 [Compound I-167] | 100 to 5000 | < 100 | 
7 | CC(C)Oc1ccc(S(=O)(=O)N2C[C@@H](C)[C@@H](n3nc(CC(=O)O)c4ccc(F)cc43)C2)nc1 [Compound I-149] | < 100 | 100 to 5000 | 4.8
8 | COc1ccc(S(=O)(=O)N2C[C@@H](C)[C@@H](n3nc(CC(=O)O)c4ccc(C)cc43)C2)c(F)c1 [Compound I-236] | < 100 | < 100 | 
9 | Cc1ccc2c(CC(=O)O)nn([C@@H]3C[C@H](C(F)F)N(S(=O)(=O)c4ccc(OC(C)C)cc4)C3)c2c1 [Compound I-92] | 100 to 5000 | < 100 | 
10 | CC(C)Oc1ccc(S(=O)(=O)N2C[C@H](n3nc(CC(=O)O)c4ccc(F)cc43)[C@@](C)(O)C2)cc1 [Compound I-84] | < 100 | 100 to 5000 | 
11 | CC(C)C1CC1S(=O)(=O)N1C[C@@H](C)[C@@H](n2nc(CC(=O)O)c3ccccc32)C1 (stereo partly shown) [Compound I-238] | < 100 | 100 to 5000 | 
12 | CCOc1ccc(S(=O)(=O)N2C[C@@H](n3nc(CC(=O)O)c4ccccc43)[C@](C)(F)C2)cc1 [Compound I-310] | 100 to 5000 | 100 to 5000 | 
13 | CCOc1ccc(S(=O)(=O)N2C[C@@H](C)[C@@H](n3nc(CC(=O)O)c4ccc(C)cc43)C2)cn1 [Compound I-111] | < 100 | < 100 | 
14 | CCOc1ccc(S(=O)(=O)N2C[C@@H](C)[C@@H](n3nc(CC(=O)O)c4ccccc43)C2)c(Br)c1 [Compound I-216] | < 100 | < 100 | 
15 | Cc1ccc2c(CC(=O)O)nn([C@H]3CN(S(=O)(=O)c4ccc(OC(C)C)cc4)C[C@H]3C)c2c1 [Compound I-63] |  | < 100 | 3.1
16 | Cc1ccc2c(c1)c(CC(=O)O)nn2[C@H]1CN(S(=O)(=O)c2ccc(OC(C)C)cc2)C[C@H]1C [Compound I-203] | 100 to 5000 | < 100 | 
17 | CC(C)Oc1ccc(S(=O)(=O)N2C[C@H](n3nc(CC(=O)O)c4ccc(F)cc43)C[C@@H]2CF)cc1 [Compound I-13] | < 100 | < 100 | 
18 | CC(C)Oc1ccc(S(=O)(=O)N2C[C@H](n3nc(CC(=O)O)c4ccc(F)cc43)C[C@H]2C(=O)N(C)C)cc1 [Compound I-5] | 100 to 5000 | 100 to 5000 | 
19 | CC(C)Oc1ccc(S(=O)(=O)N2C[C@@H](C)[C@@H](n3nc(CC(=O)O)c4ccc(F)cc43)C2)c(C#N)c1 [Compound I-58] | < 100 | < 100 | 
20 | CCOc1ccc(S(=O)(=O)N2C[C@H](F)[C@@H](n3nc(CC(=O)O)c4ccccc43)C2)cc1 [Compound I-313] | < 100 | 100 to 5000 | 
21 | CC(C)Oc1ccc(S(=O)(=O)N2C[C@H](n3nc(CC(=O)O)c4ccc(F)cc43)C[C@@H]2CC#N)cc1 [Compound I-18] | < 100 | 100 to 5000 | 
22 | COc1ccc(S(=O)(=O)N2C[C@@H](C)[C@@H](n3nc(CC(=O)O)c4ccc(C)cc43)C2)cc1 [Compound I-230] | < 100 | < 100 | 
23 | C[C@@H]1CN(S(=O)(=O)c2ccc(OCF)cc2)C[C@@H]1n1nc(CC(=O)O)c2ccccc21 [Compound I-270] | < 100 | < 100 | 
24 | CON=C[C@@H]1CN(S(=O)(=O)c2ccc(OC(C)C)cc2)C[C@@H]1n1nc(CC(=O)O)c2ccc(F)cc21 [Compound I-65] | < 100 | 100 to 5000 | 
25 | CC(C)Oc1ccc(S(=O)(=O)N2C[C@@H](C)[C@@H](n3nc(CC(=O)O)c4cc(Cl)ccc43)C2)cc1 [Compound I-163] | 100 to 5000 | < 100 | 
26 | CCOc1ccc(S(=O)(=O)N2C[C@@H](C)[C@H](n3nc(CC(=O)O)c4ccccc43)C2)cc1 [Compound I-197] | 100 to 5000 | 100 to 5000 | 
27 | CCOc1ccc(S(=O)(=O)N2C[C@@H](C)[C@@H](n3nc(CC4=NNC(=O)C4)c4ccccc43)C2)cc1 [Compound I-297] | 100 to 5000 | 100 to 5000 | 
